In patent US20250092360A1, “METHODS AND COMPOSITIONS FOR GENERATING SOMATOSTATIN+ INTERNEURONS FROM HUMAN FOREBRAIN NEURAL PROGENITOR CELLS” (Trailhead Biosystems Inc., priority 2023, published 2025):
“And” between values parts separate entries of the source, which are not always exact repeats. Identical values can stand only once. “Also recorded” adds a separate entry of the source.

Tests used:
[1] = tested on: forebrain-committed neural progenitor cells; assay: HD-DoE stage 5, 8-factor experiment (GDNF, BDNF, NT-3 ...): Somatostatin expression; assay type: cell-based, human; conditions: for impact on expression of Somatostatin: FIG. 24 dynamic profile, in words; for factor contribution, expression of Somatostatin: positive, 8-factor experiment of FIG. 23
Protocol: To investigate the effects of other factors on differentiation of forebrain-committed neural progenitor cells to Somatostatin interneuron cells, an additional HD-DoE experiment was performed for 3 days on cells that were treated with stage 1 to stage 4 medium for a total of 12 days prior to the new experiment. This experiment, the results of which are shown in FIG. 23, included eight effectors, GDNF, BDNF, NT-3, ß-NGF, Linoleic acid, 5-Cholesten-3β, LIF and TGF-β3. In this model, we focused on maximum expression of Somatostatin gene expressed in Somatostatin (+) interneurons (Urban-Ciecko and Barth (2016) Nature Reviews Neurosci. 17:401-409). When the model was optimized for maximum expression of Somatostatin, BDNF, NT-3, beta-NGF and Linoleic acid had the highest factor contributions, 25.7, 2, 19.9, 23.5, respectively.
Therefore, the latter were excluded in the recipe.

[2] = tested on: forebrain-committed neural progenitor cells; assay: HD-DoE stage 5, 8-factor experiment (JQ1, Indolactam-V ...): Somatostatin expression; assay type: cell-based, human
Protocol: To further guide the differentiation of forebrain-committed neural progenitor cells to somatostatin interneuron cells at stage 5, HD-DoE experiments were performed for 3 days after termination of stage 4 treatment. At this time, we focused on maximum expression of SST that was expressed in Somatostatin (+) interneurons and minimum expression of Parvalbumin that is another type of interneurons. This 8-factor experiment included JQ1, (−)-Indolactam-V, Oleic acid, BDNF, IGF-1, 2-phospho-L-Ascorbic acid, Albumax, MK2206. When the model was maximized for expression of Somatostatin, six effectors were identified that could increase its expression levels, including (−)-Indolactam-V, Oleic acid, BDNF, 2-phospho-L-ascorbic acid, Albumax, and MK2206, as shown in FIG. 21. Using dynamic profile analysis, the results of which are shown in FIG. 22, the model was modified to achieve the maximum expression level of Somatostatin and therefore (−)-Indolactam-V, BDNF, and 2-phospho-L-ascorbic acid were included while JQ-1, Oleic acid, Albumax and MK2206 were excluded. Considering the model at different optimization settings for maximum differentiation of cells toward ventral forebrain, the recipe for stage 5 of differentiation included (−)-Indolactam-V, BDNF, IGF-1, and 2-phospho-L-ascorbic acid from this HD-Doe experiment.

[3] = tested on: medial ganglionic eminence (MGE)-derived neural progenitors; assay: HD-DoE stage 4, 12-factor experiment: SOX6 expression; assay type: cell-based, human; conditions: for impact on expression of SOX6: dynamic profile, in words; for factor contribution, expression of SOX6: significant negative effect, model optimized for maximal SOX6
Description: These effectors are small chemical compounds or proteins. They are commonly used during the differentiation of stem cells to specific cell linage. The choice of the effectors was based on the current literature on forebrain neural induction and differentiation of neural progenitor cells to mature neurons.
To evaluate the effectors on SST differentiation, experiments with 8 or 12 factors were designed to assess the responses of cells to 48 or more combinations of effectors in a range of concentrations. To analyze the models, we focused on expression of genes involved in development and patterning of the forebrain interneurons maturation including LHX6 (Liodis et al. (2007) J. Neurosci. 27:3078-3089; Yuan et al. (2018) Elife 7: e37382), SOX6 (Azim et al. (2009) Nature Neurosci. 12:1238-1247; Batista-Brito et al. (2009) Neuron 63:466-481), DLX5 (de Lombares et al. (2019) Aging (Albany NY) 11:6638; Wang et al. (2010) J. Neurosci. 30:5334-5345) and ASCL1 (Barretto et al. (2020) J. Neurosci. Meth. 334:108548; Shi et al. (2016) J. Biol. Chem. 291:13560-13570). At later stages we focused on interneuron maturation genes including somatostatin and absence of Parvalbumin (Horn and Nicoll (2018) Proc. Natl. Acad. Sci. 115:589-594). The impacts of each effector on gene expression level are defined by a parameter called factor contribution that is calculated for each effector during the modeling.
To identify the recipe for differentiation at stage 4, at least 48 different combinations of effectors were robotically prepared by the Design-of-Experiments compression through D-optimality. The effector combinations were prepared in a basal media and were subsequently added to the cells, which were then allowed to differentiate. Three days later, RNA extraction was performed, and gene expression levels were examined using quantitative PCR analysis. The data was normalized and modeled using partial least squares regression analysis to the effector design, resulting in the generation of gene-specific models, which after model tuning for maximal predictive power, provided explanation of the effectors ability to control the expression of individual genes, combinatorically, and individually. Solutions within the tested space could then be explored to address desirability.
IGF-1 activates the IGF-1 pathway, promotes neuron axonal growth, and establishes the synapse of interneurons. GDNF is the […] and can activate the GDNF pathway. MK2206 is an AKT inhibitor and can inhibit cell proliferation and promote neuronal maturation. PD173074 and BLU-554 are FGFR inhibitors. The FGF pathway is required for the maintenance of neural progenitor cells. Inhibition of the FGFR pathway promotes neural maturation. GSI-XX is a notch pathway inhibitor. Notch pathway inhibits neural progenitor cell differentiation. Inhibition of the Notch pathway promotes neural differentiation.
To find the set of factors that have the potential to optimize SOX6 in this experiment, a new assessment was done through dynamic profile analysis with focus on maximal expression of SOX6.

[4] = tested on: stage 2 neural stem cells; assay: HD-DoE stage 3 experiment: ASCL1, LHX6, DLX1 expression; assay type: cell-based, human; conditions: for factor contribution, expression of ASCL1: positive, model optimized for maximum ASCL1 at 1700
Protocol: To further guide the cells to medial ganglionic eminence progenitor fate, an additional HD-DoE experiment was performed for 3 days on cells that were treated with stage 1 and stage 2 media for total of 6 days prior to start of the experiment. This experiment included 13 effectors, LDN193189, A8301, GNF5837, AZD3147, GSI-XX, Takinib, PD0325901, PD173074, BLU9931, IGF-1, MHY1485, Purmorphamine and Prostratin. In this model, we focused on maximum expression of genes expressed in neuronal progenitor cells in medial ganglionic eminence (MGE) region including ASCL1, LHX6 and DLX1 (Silberberg et al. (2016) Neuron 92:59-74). When the model was optimized for maximum expression of ASCL1 at 1700, A8301, GSI-XX, Purmorphamine and Takinib, which is an inhibitor of TAK1 pathway, had the highest factor contributions, 18.1, 14.1, 12.7 and 10.1 respectively. […] MHY 1485 also had positive contribution however the factor was below 2 (FIG. 9).
Therefore, six effectors including A8301, GSI-XX, Takinib, GNF5837, IGF-1 and Purmorphamine were finalized as ingredients of stage 3 differentiation media. A representative recipe for Stage 3 differentiation is summarized below in Table 3.

[5] = tested on: stage 2 neural stem cells; assay: Factor criticality analysis, stage 3 recipe; assay type: cell-based, human; conditions: other five stage 3 factors present; for expression level of DLX1 when the factor is removed: 220 with all six factors; for expression level of LHX6 when the factor is removed: 240 with all six factors; for expression level of ASCL1 when the factor is removed: 1650 with all six factors
Protocol: (§1) To assess the impact of the elimination of each validated factor, dynamic profile analysis was used and compared the expression level of genes of interest in absence of each finalized factor while others are present.
In the stage 3 recipe, each of the six finalized factors were removed while the other five factors remained present and the expression levels of ASCL1, DLX1 and LHX6 were assessed compared to the presence of all six factors. […] As expected, in the absence of IGF-1, the value of DLX1 increases to 410, however, ASCL1 and LHX6 decreased to 1390 and 220, respectively.

[6] = tested on: human pluripotent stem cells; assay: Factor criticality analysis, stage 1 recipe (dynamic profile analysis); assay type: cell-based; conditions: 3500 with all factors; FIG. 12
Description: as §1, with “present. […] When Purmorphamine was removed, levels of FEZF2 and SIX3 were decreased to 1000 and below 3000, while levels of OTX2 increased to 6500.” for “present.”

[7] = tested on: human pluripotent stem cells; assay: HD-DoE stage 1, additional experiment: FEZF2 expression; assay type: cell-based; conditions: dynamic profile, in words
Protocol: To identify the recipe for stage 1 of differentiation, 96 different combinations of effectors generated using Design-of-Experiments compression through D-optimality were robotically prepared. The effector combinations were prepared in a basal media and were subsequently added to the cells, which were then allowed to differentiate. Three days later RNA extraction was performed, and gene expression was obtained using quantitative PCR analysis. The data were normalized and modeled using partial least squares regression analysis to the effector design, resulting in the generation of gene-specific models, which after model tuning for maximal Q2 predictive power, provided explanation of the effectors ability to control the expression of individual genes, combinatorically, and individually. Solutions within the tested space could then be explored to address desirability. To further enhance the conditions for forebrain differentiation from pluripotency, an additional HD-DoE experiment was performed. Additional gene regulatory models were obtained that were used for preparation of the differentiation protocol. The factors in this experiment included LDN193189, PD173074, BLU9931, Purmorphamine, SC79, MK2206, ZM336372, PD0325901, CHIR99021, XAV939, UCLA-GP130, Tofacitinib and GO6983. […] Dynamic profile analysis was also used to assess the interaction between the effectors.

Molecule: 5-Cholesten-3β
- impact on expression of Somatostatin [1]: negative impact

Molecule: CCCCCCCC/C=C\CCCCCCCC(=O)O [Oleic acid]
- impact on expression of Somatostatin ([2]; FIG. 21/22, in words): increase; also recorded: positive impact
- factor contribution, expression of Somatostatin ([2]; positive, 8-factor experiment of FIG. 21): 7.4

Molecule: CCCC(CCC)C(=O)O [Valproic acid]
- impact on expression of SOX6 [3]: negative effect
- factor contribution, expression of SOX6 [3]: 4.7

Molecule: O=[N+]([O-])c1ccc(Nc2nc(N3CCOCC3)nc(N3CCOCC3)n2)cc1 [MHY 1485]
- impact on expression of SOX6 [3]: negative effect
- factor contribution, expression of SOX6 [3]: 9.5
- factor contribution, expression of ASCL1 [4]: below 2

Molecule: CCCn1/c(=N/C(=O)c2cccc(C(N)=O)c2)[nH]c2ccccc21 [Takinib]
- expression level of DLX1 when the factor is removed [5]: 180
- expression level of LHX6 when the factor is removed [5]: 170
- factor contribution, expression of ASCL1 [4]: 10.1

Molecule: beta-NGF: effector tested in the stage 5 HD-DoE experiment
- impact on expression of Somatostatin [1]: positive impact
- impact on expression of Somatostatin ([1]; listed as β-NGF): positive effect
- factor contribution, expression of Somatostatin [1]: 19.9

Molecule: Cc1cccc(-c2nn(C(=S)Nc3ccccc3)cc2-c2ccnc3ccccc23)n1 [A8301]
- expression level of DLX1 when the factor is removed [5]: did not change significantly
- expression level of LHX6 when the factor is removed [5]: did not change significantly
- expression level of ASCL1 when the factor is removed [5]: 1000
- impact on expression of ASCL1 ([4]; dynamic profile, in words): positive trends; also recorded: Positive impact
- impact on expression of DLX1 ([4]; dynamic profile, in words): did not have a significant negative impact
- impact on expression of LHX6 ([4]; dynamic profile, in words): positive trends; also recorded: Positive impact
- factor contribution, expression of ASCL1 [4]: 18.1 and 18

Molecule: LIF: effector tested in the stage 5 HD-DoE experiment
- impact on expression of Somatostatin [1]: negative impact

Molecule: NC(=O)c1ccc(-c2nc(-c3ccc4c(c3)OCO4)c(-c3ccccn3)[nH]2)cc1 [SB431542]
- impact on expression of SOX6 [3]: negative effect
- factor contribution, expression of SOX6 [3]: 6.2

Molecule: CCCCC/C=C\C/C=C\CCCCCCCC(=O)O [Linoleic acid]
- impact on expression of Somatostatin [1]: positive effect; also recorded: positive impact
- factor contribution, expression of Somatostatin [1]: 23.5

Molecule: Cc1ccc(NC(=O)Nc2cc(C(F)(F)F)ccc2F)cc1Nc1ccc2c(c1)NC(=O)/C2=C\c1ccc[nH]1 [GNF5837]
- expression level of DLX1 when the factor is removed [5]: did not have a significant impact
- expression level of LHX6 when the factor is removed [5]: 160
- expression level of ASCL1 when the factor is removed [5]: 1300
- factor contribution, expression of ASCL1 [4]: 9.4

Molecule: Substance P: member of the tachykinin neuropeptide family
- impact on expression of SOX6 [3]: negative effect
- factor contribution, expression of SOX6 [3]: 5.1

Molecule: COc1ccc2c(c1)c(C1=C(c3c[nH]c4ccccc34)C(=O)NC1=O)cn2CCCN(C)C [GO6983]
- expression level of FEZF2 when the factor is removed [6]: 3200
- impact on expression of FEZF2 [7]: positive impact

B1: NT-3: effector tested in the stage 5 HD-DoE experiment (protein, UniProt P20783 139-257, looked up)
Neurotrophin-3: YAEHKSHRGEYSVCDSESLWVTDKSSAIDIRGHQVTVLGEIKTGNSPVKQYFYETRCKEARPVKNGCRGIDDKHWNSQCKTSQTYVRALTSENNKLVGWRWIRIDTSCVCALSRKIGRT
- impact on expression of Somatostatin [1]: positive effect; also recorded: positive impact
- factor contribution, expression of Somatostatin [1]: 2

B2: TGF-β3: effector tested in the stage 5 HD-DoE experiment (protein, UniProt P10600 301-412, looked up)
Transforming growth factor …: ALDTNYCFRNLEENCCVRPLYIDFRQDLGWKWVHEPKGYYANFCSGPCPYLRSADTTHSTVLGLYNTLNPEASASPCCVPQDLEPLTILYYVGRTPKVEQLSNMVVKSCKCS
modifications: Transforming growth factor beta-3
- impact on expression of Somatostatin [1]: negative impact
